Holding throughout (type): in vivo
Data set [1] relates to Kanzawa Spider Mite (Tetranychus kanzawai). Kind of data set: Kanzawa spider mite, sprayed potted cotton plants (II.7.a). The settings on record: 300 ppm; population reduction assessed after 24, 72 and 120 hours; in comparison with untreated controls. As to the method: The active compounds were dissolved at the desired concentration in a mixture of 1:1 (vol:vol) acetone:water. The test solutions were prepared at the day of use.
Potted cotton plants colonized with approximately 50 mites of various stages were sprayed after the pest population had been recorded. Population reductions (or increases) after 24, 72 and 120 hours were assessed.

In data set [2] the test system is Diamond Back Moth (Plutella xylostella). Kind of data set: Diamond back moth, larvae sprayed with test solution (II.1.a). The settings on record: 500 ppm; third-instar larvae sprayed; mortality recorded 24, 72 and 120 hours after treatment; in comparison with untreated controls. As to the method: The active compound was dissolved at the desired concentration in a mixture of 1:1 (vol:vol) acetone:water. The test solution was prepared at the day of use.
Ten, third-istar larvae are sprayed with 1 ml test solution and introduced to untreated leaves held in a petri dish that was lined with moist filter paper. Mortality was recorded 24, 72 and 120 hours after treatment.

For data set [3], the system named is Cowpea Aphid (Aphis craccivora). The data set is described as follows: Activity against cowpea aphid, sprayed potted cowpea plants (II.3). Particulars: population reduction assessed after 72 hours, in comparison with untreated controls. As to the method: The active compounds were formulated in 50:50 (vol:vol) acetone:water. The test solution was prepared at the day of use.
Potted cowpea plants colonized with 100-150 aphids of various stages were sprayed after the pest population had been recorded. Population reduction was assessed after 72 hours.

The text below walks through data of patent publication US8765774B2, “3-arylquinazolin-4-one compounds for combating invertebrate pests” (BASF SE, priority 2009, dated 2014).

Broadly, the mortality is the share of the test organisms that died. `Cc1cc(F)c(-n2cnc3ccccc3c2=O)cc1SCC(F)(F)F` [Compound I-1, 2-(2,2,2-trifluoroethylsufanyl)-4-(4-oxo-quinazolin-3-yl)-5-fluoro-toluol] returned a mortality in data set [1] of 100%.
On the same count and under the same terms, the result for `Cc1cc(F)c(-n2cnc3ccccc3c2=O)cc1[S+]([O-])CC(F)(F)F` (stereo not shown) [Compound I-2, 2-(2,2,2-trifluoroethylsufinyl)-4-(4-oxo-quinazolin-3-yl)-5-fluoro-toluol] reads 100%.
As for `Cc1cc(F)c(-n2c(C)nc3ccccc3c2=O)cc1SCC(F)(F)F` [Compound I-3, 2-(2,2,2-trifluoroethylsufanyl)-4-(2-methyl-4-oxo-quinazolin-3-yl)-5-fluoro-toluol], in data set [2], the mortality is 100%.
`O=c1c2ccccc2ncn1-c1ccnc(SCC(F)(F)F)n1` [Compound I-6, 3-[2-(2,2,2-Trifluoro-ethylsulfanyl)-pyrimidin-4-yl]-3H-quinazolin-4-one] showed a mortality at 300 ppm in data set [3] of at least 50%.
